Assay [1] has as its system Pseudomonas aeruginosa. The assay is described as follows: Inhibition of biofilm formation of Pseudomonas aeruginosa PAO1 at 50 uM by crystal violet staining-based spectrophotometric analysis relative to control. The class given is functional.
Assay [2] concerns Pseudomonas aeruginosa. Description: Growth inhibition of Pseudomonas aeruginosa PAO1 at 50 uM relative to control. Type of assay: functional. To be noted: read-out: GI.
The test system of assay [3] is Staphylococcus aureus. The assay is described as follows: Inhibition of biofilm formation of methicillin-sensitive Staphylococcus aureus at 50 uM by crystal violet staining-based spectrophotometric analysis relative to control. The class given is functional.
Assay [4] has as its system Staphylococcus aureus. The assay is described as follows: Growth inhibition of methicillin-sensitive Staphylococcus aureus at 50 uM relative to control. The class given is functional. To be noted: read-out: GI.
Assay [5] deals with Staphylococcus aureus. The assay is described as follows: Inhibition of biofilm formation of Staphylococcus aureus ATCC 35556 at 50 uM by crystal violet staining-based spectrophotometric analysis relative to control. Type of assay: functional.
The subject of assay [6] is Staphylococcus aureus. The assay is described as follows: Growth inhibition of Staphylococcus aureus ATCC 35556 at 50 uM relative to control. Type of assay: functional. The settings on record: read-out: GI.
The subject of assay [7] is Staphylococcus epidermidis. Description: Inhibition of biofilm formation of Staphylococcus epidermidis 1457 at 50 uM by crystal violet staining-based spectrophotometric analysis relative to control. Type of assay: functional.
Assay [8] deals with Staphylococcus epidermidis. Description: Growth inhibition of Staphylococcus epidermidis 1457 at 50 uM relative to control. To be noted: read-out: GI. Type of assay: functional.
The test system of assay [9] is Staphylococcus epidermidis. The assay is described as follows: Growth inhibition of Staphylococcus epidermidis GTC 18972 at 50 uM relative to control. Type of assay: functional. To be noted: read-out: GI.
In assay [10] the test system is Staphylococcus epidermidis. The assay is described as follows: Inhibition of biofilm formation of Staphylococcus epidermidis GTC 18972 at 50 uM by crystal violet staining-based spectrophotometric analysis relative to control. Type of assay: functional.
Assay [11] has as its system Staphylococcus aureus. The assay is described as follows: Growth inhibition of Staphylococcus aureus MRSA 1094 at 50 uM relative to control. The settings on record: read-out: GI.
Assay [12] concerns Staphylococcus aureus. Description: Inhibition of biofilm formation of Staphylococcus aureus MRSA 1094 at 50 uM by crystal violet staining-based spectrophotometric analysis relative to control.

Turning to `COC(=O)CC1=NN(c2ccccc2)C(=O)/C1=C\c1ccc(O)cc1`, the inhibition at 50 µM was -5.96% in the assay with Pseudomonas aeruginosa [1]; 9.96% with Staphylococcus aureus [3]; -0.723% in the assay with Staphylococcus aureus [5]; 3.69% in assay [7]; 2.6% in [10]; -7.01% in the assay on Staphylococcus aureus [12]. In addition, the inhibition of growth at 50 µM is 14.1% with Pseudomonas aeruginosa [2]; -5.33% in the assay with Staphylococcus aureus [4]; -7.76% in the assay with Staphylococcus aureus [6]; 15% in [8]; 30.2% in assay [9]; 7.95% in the assay on Staphylococcus aureus [11].
As to `COC(=O)CC1=NN(c2ccccc2)C(=O)/C1=C\c1cc(OC)c(OC)c(OC)c1`, the inhibition at 50 µM with Pseudomonas aeruginosa [1] was 11%; with Staphylococcus aureus [3] it was 19.8%; in the assay with Staphylococcus aureus [5], 31.2%; in [7], 10.6%; in [10] it was 12.8%; in the assay on Staphylococcus aureus [12], 2.88%. Further, the inhibition of growth at 50 µM in the assay on Pseudomonas aeruginosa [2] is -0.864%; in the assay on Staphylococcus aureus [4] it was 1.49%; in the assay with Staphylococcus aureus [6] it was -3.34%; in [8], 15.8%; in assay [9], 33.8%; with Staphylococcus aureus [11], 20.9%.
As for `COC(=O)CC1=NN(c2ccccc2)C(=O)/C1=C\c1ccc(Cl)cc1`, the inhibition at 50 µM in the assay with Pseudomonas aeruginosa [1] came out at 9.68%; with Staphylococcus aureus [3] it was 86.7%; in the assay on Staphylococcus aureus [5] it was 88.1%; in assay [7], 6.08%; in [10], 20.4%; in the assay on Staphylococcus aureus [12], 21.5%. Also, the inhibition of growth at 50 µM in the assay with Pseudomonas aeruginosa [2] was -5.15%; in the assay on Staphylococcus aureus [4], 21.9%; in the assay on Staphylococcus aureus [6] it was 10.3%; in assay [8], 23.1%; in [9], 32.4%; in the assay with Staphylococcus aureus [11] it was 38%.
On to `COC(=O)CC1=NN(c2ccccc2)C(=O)/C1=C\c1c[nH]c2ccccc12`, for which the inhibition at 50 µM in the assay with Pseudomonas aeruginosa [1] is -38.5%; in the assay with Staphylococcus aureus [3], 8.02%; in the assay with Staphylococcus aureus [5] it was 62%; in [7] it was 47.7%; in assay [10] it was 54.5%; in the assay with Staphylococcus aureus [12], -126%. Also, the inhibition of growth at 50 µM was -10.8% in the assay on Pseudomonas aeruginosa [2]; -19.4% in the assay on Staphylococcus aureus [4]; -19.7% in the assay on Staphylococcus aureus [6]; -7.59% in assay [8]; -2.37% in assay [9]; 0.914% in the assay on Staphylococcus aureus [11].
Turning to `COC(=O)CC1=NN(c2ccccc2)C(=O)/C1=C\c1ccco1`, the inhibition at 50 µM in the assay with Pseudomonas aeruginosa [1] was 13.9%; in the assay on Staphylococcus aureus [3], -15.6%; in the assay on Staphylococcus aureus [5] it was 6.49%; in assay [7], 9.86%; in assay [10], 12.1%; with Staphylococcus aureus [12], -167%. For the same molecule, the inhibition of growth at 50 µM in the assay with Pseudomonas aeruginosa [2] was -14.8%; in the assay with Staphylococcus aureus [4] it was -5.33%; with Staphylococcus aureus [6] it was -15.4%; in assay [8], 13.9%; in assay [9], 25.9%; in the assay with Staphylococcus aureus [11], 20.4%.
Regarding `COC(=O)CC1=NN(c2ccccc2)C(=O)/C1=C\c1ccc(N(C)C)cc1`, the inhibition at 50 µM in the assay with Pseudomonas aeruginosa [1] was -79.8%; in the assay on Staphylococcus aureus [3], -27.3%; with Staphylococcus aureus [5], 9.7%; in [7] it was 1.24%; in [10] it was 3.75%; in the assay with Staphylococcus aureus [12], 35.9%. Further, the inhibition of growth at 50 µM with Pseudomonas aeruginosa [2] was 2.45%; with Staphylococcus aureus [4], -11.4%; in the assay with Staphylococcus aureus [6], -18.4%; in [8] it was 9.19%; in [9], 27.7%; in the assay on Staphylococcus aureus [11], 11.5%.
Take `COC(=O)CC1=NN(c2ccccc2)C(=O)/C1=C\c1ccsc1`: the inhibition at 50 µM is -4.41% in the assay on Pseudomonas aeruginosa [1]; -5.79% in the assay with Staphylococcus aureus [3]; 0.355% in the assay with Staphylococcus aureus [5]; 2.03% in assay [7]; 10.8% in assay [10]; -23.8% in the assay on Staphylococcus aureus [12]. The inhibition of growth at 50 µM was 10.8% with Pseudomonas aeruginosa [2]; -3.06% with Staphylococcus aureus [4]; -17.5% in the assay with Staphylococcus aureus [6]; 14.3% in [8]; 33.8% in assay [9]; 15% in the assay with Staphylococcus aureus [11].
As to `COC(=O)CC1=NN(c2ccccc2)C(=O)/C1=C\c1ccc(OC)cc1OC`, the inhibition at 50 µM is -31.1% with Pseudomonas aeruginosa [1]; -61.9% with Staphylococcus aureus [3]; 1.53% with Staphylococcus aureus [5]; -0.983% in assay [7]; -5.55% in assay [10]; 37.6% in the assay with Staphylococcus aureus [12]. In addition, the inhibition of growth at 50 µM in the assay with Pseudomonas aeruginosa [2] was -3.78%; with Staphylococcus aureus [4], -6.08%; with Staphylococcus aureus [6], -5.55%; in assay [8], -1.75%; in assay [9], 20.5%; in the assay on Staphylococcus aureus [11] it was -0.169%.
As to `COC(=O)CC1=NN(c2ccccc2)C(=O)/C1=C\c1ccccc1Br`, the inhibition at 50 µM was -22.9% with Pseudomonas aeruginosa [1]; 46.5% in the assay with Staphylococcus aureus [3]; 65.8% with Staphylococcus aureus [5]; 50.8% in [7]; 82.6% in assay [10]; 87.9% in the assay with Staphylococcus aureus [12]. Further, the inhibition of growth at 50 µM in the assay on Pseudomonas aeruginosa [2] is 9.21%; in the assay on Staphylococcus aureus [4], 8.69%; in the assay on Staphylococcus aureus [6] it was -6.96%; in [8], 32.4%; in assay [9], 55%; in the assay with Staphylococcus aureus [11], 53.5%.
For `CCOc1ccc(/C=C2\C(=O)N(c3ccccc3)N=C2CC(=O)OC)cc1OC`, the inhibition at 50 µM with Pseudomonas aeruginosa [1] was -5.61%; with Staphylococcus aureus [3] it was 57.8%; in the assay with Staphylococcus aureus [5] it was 34%; in assay [7], -1.83%; in assay [10], 15.6%; in the assay with Staphylococcus aureus [12], 15.2%. Further, the inhibition of growth at 50 µM in the assay with Pseudomonas aeruginosa [2] is -1.25%; in the assay on Staphylococcus aureus [4], -0.402%; with Staphylococcus aureus [6], -2.46%; in assay [8] it was 4.08%; in assay [9], 22%; in the assay with Staphylococcus aureus [11], 2.81%.

These data come from ChEMBL document CHEMBL2385025, “Detour of prenostodione synthesis towards pyrazolones for antibacterial activity” (2013).
